In ChEMBL document CHEMBL5537153, “Modifications to 1-(4-(2-Bis(4-fluorophenyl)methyl)sulfinyl)alkyl Alicyclic Amines That Improve Metabolic Stability and Retain an Atypical DAT Inhibitor Profile” (J Med Chem, 2024):

Experiments:
[1] = biological target: Sodium-dependent serotonin transporter (Rattus norvegicus, UniProt P31652); experiment: Displacement of [3H]citalopram from SERT in Sprague-Dawley rat brainstem incubated for 60 mins by scintillation counting analysis; type: tissue-based
[2] = biological target: Sodium-dependent dopamine transporter (Rattus norvegicus, UniProt P23977); experiment: Displacement of [3H]WIN35428 from DAT in Sprague-Dawley rat striatum incubated for 120 mins by scintillation counting analysis; type: tissue-based
Rattus norvegicus = organism: Rattus norvegicus; experiment: Selectivity ratio of Ki for SERT in Sprague-Dawley rat brainstem to Ki for DAT in Sprague-Dawley rat striatum
[3] = biological target: T1, Sodium-dependent dopamine transporter (Homo sapiens, UniProt Q01959); experiment: Displacement of [3H]WIN35428 from wild type human DAT expressed in COS-7 cells incubated for 1.5 hrs by scintillation counting analysis; type: cell-based
[4] = Displacement of [3H]WIN35428 from human DAT Y156F mutant expessed in COS-7 cells incubated for 1.5 hrs by beta scintillation counting analysis; type: cell-based
[5] = Inhibition of [3H]dopamine uptake from human DAT Y335A mutant expressed in COS-7 cells preincubated for 30 mins followed by [3H]dopamine addition and measured after 10 mins by beta scintillation counting analysis; type: cell-based
[6] = Displacement of [3H]nisoxetine from NET in Sprague-Dawley rat prefrontal cortex incubated for 180 mins by microbeta microscintillation counting analysis; type: tissue-based
[7] = Metabolic stability of the compound in mouse liver microsomes assessed as parent compound remaining at 10 uM measured after 60 mins in presence of NADPH regenerating system by LC/MS analysis; type: ADME, Microsome; details: read-out: Stability
[8] = biological target: T1, Sodium-dependent dopamine transporter; experiment: Inhibition of [3H]dopamine uptake from wild type human DAT expressed in COS-7 cells preincubated for 30 mins followed by [3H]dopamine addition and measured after 5 mins by beta scintillation counting analysis; type: cell-based
[9] = Induction of behavioural effects in wild type C57BL/6J mouse assessed as locomotor activity at 3 to 30 mg/kg, ip measured every 10 mins for 3 hrs by open field test; type: toxicity, organism-based; details: in vivo, dose 3-30 mg/kg
[10] = Induction of behavioural effects in wild type C57BL/6J mouse assessed as increase in locomotor activity at 30 mg/kg, ip measured after 20 mins by open field test; type: toxicity, organism-based; details: in vivo
[11] = Metabolic stability of the compound in rat liver microsomes assessed as parent compound remaining at 10 uM measured after 60 mins in presence of NADPH regenerating system by LC/MS analysis; type: ADME, Microsome; details: for Stability: microsomes, 1 h, 10 µM

T1 sequence (Q01959 whole entry): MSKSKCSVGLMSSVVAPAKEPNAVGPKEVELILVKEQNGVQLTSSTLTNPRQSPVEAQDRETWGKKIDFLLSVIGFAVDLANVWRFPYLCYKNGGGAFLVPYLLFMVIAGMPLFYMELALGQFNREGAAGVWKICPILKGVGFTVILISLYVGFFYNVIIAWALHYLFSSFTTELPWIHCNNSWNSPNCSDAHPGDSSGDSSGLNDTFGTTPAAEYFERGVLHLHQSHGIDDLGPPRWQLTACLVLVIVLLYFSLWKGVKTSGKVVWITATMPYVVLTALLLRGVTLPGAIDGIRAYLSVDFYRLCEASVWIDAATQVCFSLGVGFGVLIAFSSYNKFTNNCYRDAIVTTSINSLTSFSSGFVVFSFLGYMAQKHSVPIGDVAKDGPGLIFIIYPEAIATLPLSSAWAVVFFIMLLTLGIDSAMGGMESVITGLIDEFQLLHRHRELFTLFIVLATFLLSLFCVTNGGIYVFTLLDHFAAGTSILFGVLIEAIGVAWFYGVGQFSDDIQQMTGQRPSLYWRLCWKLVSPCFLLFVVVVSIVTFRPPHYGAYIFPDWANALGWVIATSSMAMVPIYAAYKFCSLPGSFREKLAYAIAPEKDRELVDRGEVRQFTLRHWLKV
Chain of Sodium-dependent dopamine transporter (Rattus norvegicus, UniProt P23977) (P23977 whole entry): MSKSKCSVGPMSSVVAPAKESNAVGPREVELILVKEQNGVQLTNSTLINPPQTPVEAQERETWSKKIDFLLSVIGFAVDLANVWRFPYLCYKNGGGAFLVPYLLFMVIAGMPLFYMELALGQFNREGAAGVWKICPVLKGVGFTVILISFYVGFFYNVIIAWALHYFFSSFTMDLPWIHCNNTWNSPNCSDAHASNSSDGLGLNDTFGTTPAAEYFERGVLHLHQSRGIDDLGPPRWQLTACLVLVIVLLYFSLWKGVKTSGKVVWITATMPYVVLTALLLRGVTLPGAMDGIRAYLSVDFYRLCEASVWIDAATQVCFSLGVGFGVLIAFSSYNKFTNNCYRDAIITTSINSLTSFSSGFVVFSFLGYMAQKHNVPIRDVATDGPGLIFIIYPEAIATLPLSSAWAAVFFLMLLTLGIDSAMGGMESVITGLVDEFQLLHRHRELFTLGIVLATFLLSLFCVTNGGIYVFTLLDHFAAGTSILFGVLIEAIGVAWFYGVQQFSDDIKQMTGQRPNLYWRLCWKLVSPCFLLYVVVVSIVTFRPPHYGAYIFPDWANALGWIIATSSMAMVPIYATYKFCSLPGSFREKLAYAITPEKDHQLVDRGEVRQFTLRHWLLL
Chain of Sodium-dependent serotonin transporter (P31652 whole entry): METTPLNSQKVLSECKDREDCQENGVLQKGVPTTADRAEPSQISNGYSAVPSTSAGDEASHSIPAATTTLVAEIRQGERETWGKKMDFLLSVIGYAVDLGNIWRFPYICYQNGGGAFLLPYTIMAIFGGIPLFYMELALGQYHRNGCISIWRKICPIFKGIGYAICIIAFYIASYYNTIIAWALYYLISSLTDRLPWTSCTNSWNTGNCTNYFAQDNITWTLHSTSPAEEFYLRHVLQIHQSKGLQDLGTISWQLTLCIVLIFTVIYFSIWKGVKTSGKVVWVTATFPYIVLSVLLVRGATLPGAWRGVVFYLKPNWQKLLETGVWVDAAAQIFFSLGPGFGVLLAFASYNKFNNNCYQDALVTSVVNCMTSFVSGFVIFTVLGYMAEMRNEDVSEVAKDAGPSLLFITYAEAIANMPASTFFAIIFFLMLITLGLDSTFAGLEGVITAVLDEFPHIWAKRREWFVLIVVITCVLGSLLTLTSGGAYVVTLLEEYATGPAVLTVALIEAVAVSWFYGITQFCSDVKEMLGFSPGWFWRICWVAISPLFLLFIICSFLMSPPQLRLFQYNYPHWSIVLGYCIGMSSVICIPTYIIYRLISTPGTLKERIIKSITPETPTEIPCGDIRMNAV

For `COc1ccc(CC(O)CN2CCCN(CCSC(c3ccc(F)cc3)c3ccc(F)cc3)CC2)cc1` (configuration not stated), the Ki [1] was 360 nM, the Ki [2] was 16.5 nM and the Ratio Ki (Rattus norvegicus) was 22.
In the case of `CC(O)CN1CCCN(CC[S+]([O-])C(c2ccc(F)cc2)c2ccc(F)cc2)CC1` (configuration not stated), the Ki [1] is reported as 26000 nM, the Ki [2] is reported as 417 nM and the Ratio Ki (Rattus norvegicus) is reported as 62.
`[O-][S+](CCN1CCCN(CC(O)Cc2ccccc2)CC1)C(c1ccc(F)cc1)c1ccc(F)cc1` (configuration not stated) gave a Ki [3] of 32 nM, a Ki [4] of 184 nM and a Ki [5] of 1440 nM. For the same compound, the Ki [6] was 4040 nM, the Ki [1] was 3520 nM and the Ki [2] was 8.37 nM. It also gave a Ratio Ki (Rattus norvegicus) of 421, a remaining at 1 h, 10 µM [7] of 0% and a Ki [8] of 40 nM. For the same compound, the Activity [9] was “Non-Toxic”.
`[O-][S+](CCN1CCCN(c2ncccn2)CC1)C(c1ccc(F)cc1)c1ccc(F)cc1` (configuration not stated) gave a Ki [1] of 28000 nM, a Ki [2] of 24800 nM and a Ratio Ki (Rattus norvegicus) of 1.
With `CC(F)CN1[C@H](C)CN(CCSC(c2ccc(F)cc2)c2ccc(F)cc2)C[C@@H]1C` (some centres not stated) the Ki [1] was 13400 nM, the Ki [2] was 135 nM and the Ratio Ki (Rattus norvegicus) was 99.
With `CC(O)CN1CCN(CCSC(c2ccc(F)cc2)c2ccc(F)cc2)CC1` (configuration not stated) the remaining at 1 h, 10 µM [7] was 6%.
With `CC(F)CN1[C@H](C)CN(CC[S+]([O-])C(c2ccc(F)cc2)c2ccc(F)cc2)C[C@@H]1C` (some centres not stated) the Ki [1] was greater than 100000 nM, the Ki [2] was 1050 nM and the Ratio Ki (Rattus norvegicus) was greater than 95.
With `Fc1ccc(C(SCCN2CCN(c3ccncc3)CC2)c2ccc(F)cc2)cc1` the Ki [3] was 106 nM, the Ki [4] was 393 nM and the Ki [5] was 4050 nM. For the same compound, the Ki [1] was 136 nM, the Ki [2] was 91.6 nM and the Ratio Ki (Rattus norvegicus) was 1. For the same compound, the Ki [8] was 326 nM.
`CC(O)CN1C(C)CN(CCSC(c2ccc(F)cc2)c2ccc(F)cc2)CC1C` (configuration not stated) gave a remaining at 1 h, 10 µM [7] of 68%.
With `OC(Cc1ccc(F)cc1)CN1CCCN(CCSC(c2ccc(F)cc2)c2ccc(F)cc2)CC1` (configuration not stated) the Ki [1] was 504 nM, the Ki [2] was 14.3 nM and the Ratio Ki (Rattus norvegicus) was 35.
With `C[C@@H](O)CN1CCC(CC[S+]([O-])C(c2ccc(F)cc2)c2ccc(F)cc2)CC1` (some centres not stated) the Ki [1] was 34800 nM, the Ki [2] was 276 nM and the Ratio Ki (Rattus norvegicus) was 126.
`C[C@H](O)CN1CCC(CC[S+]([O-])C(c2ccc(F)cc2)c2ccc(F)cc2)CC1` (some centres not stated) gave a Ki [1] of 14300 nM, a Ki [2] of 382 nM and a Ratio Ki (Rattus norvegicus) of 37.
For `CC(O)CN1CCCN(CCSC(c2ccc(F)cc2)c2ccc(F)cc2)CC1` (configuration not stated), the Ki [3] was 80 nM, the Ki [4] was 232 nM and the Ki [5] was 3300 nM. The Ki [1] was 2430 nM, the Ki [2] was 63.4 nM and the Ratio Ki (Rattus norvegicus) was 38. For the same compound, the remaining at 1 h, 10 µM [7] was 12% and the Ki [8] was 163 nM.
`Fc1ccc(C(SCCN2CCN(c3ncccn3)CC2)c2ccc(F)cc2)cc1` gave a Ki [1] of 923 nM, a Ki [2] of 725 nM and a Ratio Ki (Rattus norvegicus) of 1.
Compound `Fc1ccc(C(SCCN2CCCN(c3ncccn3)CC2)c2ccc(F)cc2)cc1` has a Ki [1] of 732 nM, a Ki [2] of 508 nM and a Ratio Ki (Rattus norvegicus) of 1.
Compound `[O-][S+](CCN1CCN(c2ccncc2)CC1)C(c1ccc(F)cc1)c1ccc(F)cc1` (configuration not stated) has a Ki [1] of 3460 nM, a Ki [2] of 2480 nM and a Ratio Ki (Rattus norvegicus) of 1.
With `COc1ccc(CC(O)CN2CCCN(CC[S+]([O-])C(c3ccc(F)cc3)c3ccc(F)cc3)CC2)cc1` (configuration not stated) the Ki [1] was 2670 nM, the Ki [2] was 33.4 nM and the Ratio Ki (Rattus norvegicus) was 80. It also gave a remaining at 1 h, 10 µM [7] of 20%.
Work on `[O-][S+](CCN1CCCN(CC(O)Cc2ccc(F)cc2)CC1)C(c1ccc(F)cc1)c1ccc(F)cc1` (configuration not stated) yielded a Ki [1] of 2150 nM, a Ki [2] of 6.81 nM and a Ratio Ki (Rattus norvegicus) of 316. It also gave a remaining at 1 h, 10 µM [7] of 15%.
For `OC(Cc1ccccc1)CN1CCCN(CCSC(c2ccc(F)cc2)c2ccc(F)cc2)CC1` (configuration not stated), the Ki [1] was 288 nM, the Ki [2] was 7.23 nM and the Ratio Ki (Rattus norvegicus) was 40.
For `[O-][S+](CCN1CCN(CC(O)Cc2ccccc2)CC1)C(c1ccc(F)cc1)c1ccc(F)cc1` (configuration not stated), the Ki [3] was 10.7 nM, the Ki [4] was 116 nM and the Ki [5] was 537 nM. The remaining at 1 h, 10 µM [7] was 34%, the Ki [8] was 0.806 nM and the Activity [10] was “Toxic”.
For `COc1ccc(N2CCN(CCSC(c3ccc(F)cc3)c3ccc(F)cc3)CC2)cc1`, the Ki [1] was 780 nM, the Ki [2] was 662 nM and the Ratio Ki (Rattus norvegicus) was 1.
Work on `C[C@H](O)CN1CCC(CCSC(c2ccc(F)cc2)c2ccc(F)cc2)CC1` yielded a Ki [1] of 1200 nM, a Ki [2] of 34.5 nM and a Ratio Ki (Rattus norvegicus) of 35.
For `CC(O)CN1CCC(CCSC(c2ccc(F)cc2)c2ccc(F)cc2)CC1` (configuration not stated), the Ki [1] was 1920 nM, the Ki [2] was 67 nM and the Ratio Ki (Rattus norvegicus) was 29.
In the case of `COc1ccc(N2CCN(CC[S+]([O-])C(c3ccc(F)cc3)c3ccc(F)cc3)CC2)cc1` (configuration not stated), the Ki [1] is reported as 18100 nM, the Ki [2] is reported as 6300 nM and the Ratio Ki (Rattus norvegicus) is reported as 3.
Compound `CC(O)CN1CCC(CC[S+]([O-])C(c2ccc(F)cc2)c2ccc(F)cc2)CC1` (configuration not stated) has a Ki [3] of 355 nM, a Stability [11] of 100% and a Ki [4] of 2360 nM. The Ki [6] was greater than 100000 nM, the Ki [1] was 16100 nM and the Ki [2] was 180 nM. For the same compound, the Ratio Ki (Rattus norvegicus) was 89, the Ki [8] was 949 nM and the Activity [9] was “Non-Toxic”.
Work on `OC(Cc1ccccc1)CN1CCC(CCSC(c2ccc(F)cc2)c2ccc(F)cc2)CC1` (configuration not stated) yielded a Ki [1] of 201 nM, a Ki [2] of 5.83 nM and a Ratio Ki (Rattus norvegicus) of 34.
Compound `[O-][S+](CCN1CCN(c2ncccn2)CC1)C(c1ccc(F)cc1)c1ccc(F)cc1` (configuration not stated) has a Ki [1] of 46300 nM, a Ki [2] of 22100 nM and a Ratio Ki (Rattus norvegicus) of 2.
`C[C@@H](O)CN1CCC(CCSC(c2ccc(F)cc2)c2ccc(F)cc2)CC1` gave a Ki [1] of 759 nM, a Ki [2] of 84.5 nM and a Ratio Ki (Rattus norvegicus) of 9.
Work on `CC(O)CN1CCN(CC[S+]([O-])C(c2ccc(F)cc2)c2ccc(F)cc2)CC1` (configuration not stated) yielded a Ki [3] of 1020 nM, a remaining at 1 h, 10 µM ([11]; liver microsomes, read-out: Stability) of 72% and a Ki [4] of 7560 nM. For the same compound, the Ki [5] was 14400 nM, the Ki [8] was 917 nM and the Activity [9] was “Non-Toxic”.
`[O-][S+](CCC1CCN(CC(O)Cc2ccccc2)CC1)C(c1ccc(F)cc1)c1ccc(F)cc1` (configuration not stated) gave a Stability [11] of 68%, a Ki [1] of 818 nM and a Ki [2] of 2.64 nM. The Ratio Ki (Rattus norvegicus) was 310.
